Assay results taken from ChEMBL document CHEMBL1201862, “PubChem BioAssay data set” (2004).
Activity calls are given as the source filed them.

How the values were obtained:
[1] = target: T1, Sentrin-specific protease 8 (Homo sapiens, UniProt Q96LD8); type: functional
T1 sequence (Q96LD8 whole entry): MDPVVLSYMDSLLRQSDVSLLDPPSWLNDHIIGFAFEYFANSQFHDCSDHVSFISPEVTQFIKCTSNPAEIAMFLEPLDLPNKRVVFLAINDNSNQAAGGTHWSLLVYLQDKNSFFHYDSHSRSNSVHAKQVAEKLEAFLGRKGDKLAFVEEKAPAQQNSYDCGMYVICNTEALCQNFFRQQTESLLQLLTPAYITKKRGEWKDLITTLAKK

[2] = target: Tyrosyl-DNA phosphodiesterase 2 (Homo sapiens, UniProt O95551); assay: potency against TDP2 phosphodiesterase activity – biochemical, epi absorbance, IC50, dose response (AID 743297)
Chain of Tyrosyl-DNA phosphodiesterase 2 (O95551 whole entry): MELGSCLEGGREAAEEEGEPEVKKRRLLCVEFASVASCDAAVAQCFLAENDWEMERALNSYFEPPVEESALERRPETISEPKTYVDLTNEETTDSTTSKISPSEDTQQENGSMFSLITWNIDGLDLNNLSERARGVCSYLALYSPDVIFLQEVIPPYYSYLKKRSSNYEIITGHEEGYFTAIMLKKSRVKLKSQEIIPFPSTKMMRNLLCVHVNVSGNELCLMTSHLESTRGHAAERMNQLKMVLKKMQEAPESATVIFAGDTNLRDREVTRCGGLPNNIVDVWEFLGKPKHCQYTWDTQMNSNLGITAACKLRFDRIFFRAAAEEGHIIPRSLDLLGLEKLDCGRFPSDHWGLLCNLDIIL

[3] = target: T1, Sentrin-specific protease 8; type: functional; remark: listed apart in the source
[4] = target: T2, Histone-lysine N-methyltransferase NSD2 (Homo sapiens, UniProt O96028); type: biochemical
T2 sequence (O96028 whole entry): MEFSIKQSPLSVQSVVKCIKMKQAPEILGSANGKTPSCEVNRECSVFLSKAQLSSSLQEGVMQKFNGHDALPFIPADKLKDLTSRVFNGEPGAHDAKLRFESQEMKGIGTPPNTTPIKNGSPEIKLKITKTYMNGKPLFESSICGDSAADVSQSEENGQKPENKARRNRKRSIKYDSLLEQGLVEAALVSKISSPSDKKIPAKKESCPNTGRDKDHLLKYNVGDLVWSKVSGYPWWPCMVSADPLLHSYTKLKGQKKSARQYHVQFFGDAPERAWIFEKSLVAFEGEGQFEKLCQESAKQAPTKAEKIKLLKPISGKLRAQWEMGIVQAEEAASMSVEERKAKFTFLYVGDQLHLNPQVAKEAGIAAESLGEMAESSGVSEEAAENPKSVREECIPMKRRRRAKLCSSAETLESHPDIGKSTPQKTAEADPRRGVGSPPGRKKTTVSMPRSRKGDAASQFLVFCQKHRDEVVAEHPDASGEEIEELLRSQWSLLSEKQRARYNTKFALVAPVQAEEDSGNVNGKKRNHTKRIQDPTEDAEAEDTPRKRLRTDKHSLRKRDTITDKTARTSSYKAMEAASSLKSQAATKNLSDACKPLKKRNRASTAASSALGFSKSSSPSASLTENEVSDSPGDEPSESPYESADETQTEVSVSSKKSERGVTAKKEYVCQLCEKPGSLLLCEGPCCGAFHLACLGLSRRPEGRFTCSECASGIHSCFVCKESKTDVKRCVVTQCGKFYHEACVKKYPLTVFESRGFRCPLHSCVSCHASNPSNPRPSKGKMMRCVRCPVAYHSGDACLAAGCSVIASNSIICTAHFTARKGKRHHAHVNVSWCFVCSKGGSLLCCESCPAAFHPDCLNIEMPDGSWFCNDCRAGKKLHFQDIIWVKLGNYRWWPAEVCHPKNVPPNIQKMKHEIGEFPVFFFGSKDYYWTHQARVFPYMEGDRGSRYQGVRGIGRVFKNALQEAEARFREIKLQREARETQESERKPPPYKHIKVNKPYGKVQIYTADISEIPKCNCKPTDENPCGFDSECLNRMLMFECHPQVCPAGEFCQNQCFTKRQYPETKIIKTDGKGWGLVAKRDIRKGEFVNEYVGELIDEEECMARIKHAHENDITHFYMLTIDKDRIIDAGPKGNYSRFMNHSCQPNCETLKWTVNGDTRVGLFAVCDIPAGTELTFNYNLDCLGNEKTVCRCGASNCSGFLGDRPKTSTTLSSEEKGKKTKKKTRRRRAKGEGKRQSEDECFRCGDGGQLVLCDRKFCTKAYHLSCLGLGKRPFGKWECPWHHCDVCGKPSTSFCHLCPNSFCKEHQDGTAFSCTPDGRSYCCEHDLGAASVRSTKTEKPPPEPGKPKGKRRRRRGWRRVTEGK

[5] = target: T3, Sentrin-specific protease 7 (Homo sapiens, UniProt Q9BQF6); assay: inhibition of human SENP7 cleavage activity – biochemical, luminescence, SAR follow-up (AID 504497); type: functional
T3 sequence (Q9BQF6 whole entry): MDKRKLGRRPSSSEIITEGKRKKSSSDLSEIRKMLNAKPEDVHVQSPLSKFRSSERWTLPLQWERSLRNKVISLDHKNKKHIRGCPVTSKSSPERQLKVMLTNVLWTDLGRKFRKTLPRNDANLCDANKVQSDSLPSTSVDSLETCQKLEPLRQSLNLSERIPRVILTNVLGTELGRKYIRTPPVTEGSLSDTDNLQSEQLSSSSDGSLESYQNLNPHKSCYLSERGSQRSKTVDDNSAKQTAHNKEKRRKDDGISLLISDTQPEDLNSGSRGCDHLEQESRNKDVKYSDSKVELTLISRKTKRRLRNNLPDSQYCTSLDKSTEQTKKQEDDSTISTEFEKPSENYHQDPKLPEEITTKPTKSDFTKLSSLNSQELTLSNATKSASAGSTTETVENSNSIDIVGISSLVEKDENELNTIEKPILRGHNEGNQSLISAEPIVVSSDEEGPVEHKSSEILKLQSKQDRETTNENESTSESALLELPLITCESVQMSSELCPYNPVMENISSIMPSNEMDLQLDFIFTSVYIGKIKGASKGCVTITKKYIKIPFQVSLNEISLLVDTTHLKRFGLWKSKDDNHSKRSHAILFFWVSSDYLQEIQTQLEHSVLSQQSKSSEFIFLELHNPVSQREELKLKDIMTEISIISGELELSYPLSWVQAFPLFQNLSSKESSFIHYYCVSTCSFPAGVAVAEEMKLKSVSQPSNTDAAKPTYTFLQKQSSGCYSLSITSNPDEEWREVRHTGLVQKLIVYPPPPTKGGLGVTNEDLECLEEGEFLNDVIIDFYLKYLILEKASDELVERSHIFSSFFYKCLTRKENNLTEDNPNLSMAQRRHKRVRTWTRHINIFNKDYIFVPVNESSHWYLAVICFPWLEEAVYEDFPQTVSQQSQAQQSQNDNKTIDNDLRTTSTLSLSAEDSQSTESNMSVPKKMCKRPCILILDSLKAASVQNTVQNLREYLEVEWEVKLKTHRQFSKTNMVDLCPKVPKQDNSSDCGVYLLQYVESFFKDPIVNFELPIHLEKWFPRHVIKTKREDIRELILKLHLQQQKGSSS

[6] = target: Serine/threonine-protein kinase D2 (Homo sapiens, UniProt Q9BZL6); type: functional;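 also: measured against PRKD2 as one member of a kinome-wide kinase profiling panel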
Chain of Serine/threonine-protein kinase D2 (Q9BZL6 whole entry): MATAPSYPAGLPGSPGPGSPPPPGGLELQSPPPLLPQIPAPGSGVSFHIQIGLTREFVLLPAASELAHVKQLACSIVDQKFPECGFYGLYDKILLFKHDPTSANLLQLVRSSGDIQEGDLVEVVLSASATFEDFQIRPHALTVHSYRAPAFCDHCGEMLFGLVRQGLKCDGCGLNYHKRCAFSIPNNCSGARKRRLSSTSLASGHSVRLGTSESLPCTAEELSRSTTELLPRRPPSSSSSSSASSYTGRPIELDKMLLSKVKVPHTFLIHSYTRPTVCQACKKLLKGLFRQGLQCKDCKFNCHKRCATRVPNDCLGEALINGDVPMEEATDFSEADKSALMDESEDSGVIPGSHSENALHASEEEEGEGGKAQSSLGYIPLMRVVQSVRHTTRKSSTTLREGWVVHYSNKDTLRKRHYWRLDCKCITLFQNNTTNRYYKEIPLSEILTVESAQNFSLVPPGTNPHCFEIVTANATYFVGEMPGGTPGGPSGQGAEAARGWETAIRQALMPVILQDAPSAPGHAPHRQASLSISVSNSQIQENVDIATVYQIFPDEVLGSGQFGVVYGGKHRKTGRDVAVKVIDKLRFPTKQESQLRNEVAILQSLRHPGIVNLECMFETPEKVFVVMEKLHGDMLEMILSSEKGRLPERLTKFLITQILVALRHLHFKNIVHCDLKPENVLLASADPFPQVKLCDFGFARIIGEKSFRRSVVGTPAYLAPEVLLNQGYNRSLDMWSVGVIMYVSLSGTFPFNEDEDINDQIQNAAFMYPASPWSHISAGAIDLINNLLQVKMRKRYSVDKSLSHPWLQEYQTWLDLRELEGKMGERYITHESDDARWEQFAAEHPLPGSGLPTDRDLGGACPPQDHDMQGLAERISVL

[7] = target: Mitogen-activated protein kinase 8 (Homo sapiens, UniProt P45983); type: functional;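 also: value comes from one member of a kinome-wide kinase profiling panel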
Chain of Mitogen-activated protein kinase 8 (P45983 whole entry): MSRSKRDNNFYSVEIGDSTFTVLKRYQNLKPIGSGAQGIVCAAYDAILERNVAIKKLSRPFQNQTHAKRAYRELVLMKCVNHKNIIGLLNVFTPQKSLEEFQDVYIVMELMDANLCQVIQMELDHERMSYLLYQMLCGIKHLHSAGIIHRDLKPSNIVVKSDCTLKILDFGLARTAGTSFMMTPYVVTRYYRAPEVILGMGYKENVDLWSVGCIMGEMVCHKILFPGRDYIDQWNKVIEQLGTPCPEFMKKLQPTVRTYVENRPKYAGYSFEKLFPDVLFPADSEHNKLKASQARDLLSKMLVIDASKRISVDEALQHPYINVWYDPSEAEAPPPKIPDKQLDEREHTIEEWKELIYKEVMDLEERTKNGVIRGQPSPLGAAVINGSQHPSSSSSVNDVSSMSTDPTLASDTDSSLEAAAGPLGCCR

[8] = target: Tyrosine-protein kinase Srms (Homo sapiens, UniProt Q9H3Y6); type: functional;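 also: SRMS measured as one member of a kinome-wide kinase profiling panel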
Chain of Tyrosine-protein kinase Srms (Q9H3Y6 whole entry): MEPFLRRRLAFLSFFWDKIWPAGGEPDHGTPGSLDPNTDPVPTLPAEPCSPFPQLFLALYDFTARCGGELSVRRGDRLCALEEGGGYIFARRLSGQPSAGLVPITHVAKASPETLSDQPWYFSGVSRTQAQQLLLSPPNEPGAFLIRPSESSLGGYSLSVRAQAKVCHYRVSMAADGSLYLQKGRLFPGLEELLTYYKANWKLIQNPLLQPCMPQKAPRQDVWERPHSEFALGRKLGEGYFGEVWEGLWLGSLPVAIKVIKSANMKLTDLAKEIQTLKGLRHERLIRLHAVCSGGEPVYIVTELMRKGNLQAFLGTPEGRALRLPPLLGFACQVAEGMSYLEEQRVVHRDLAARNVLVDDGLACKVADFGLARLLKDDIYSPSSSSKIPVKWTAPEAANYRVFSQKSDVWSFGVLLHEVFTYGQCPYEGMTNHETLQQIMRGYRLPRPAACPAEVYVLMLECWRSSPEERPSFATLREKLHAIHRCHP

[9] = target: Serine/threonine-protein kinase Chk1 (Homo sapiens, UniProt O14757); type: functional;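 also: measured as one member of a kinome-wide kinase profiling panel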
Chain of Serine/threonine-protein kinase Chk1 (O14757 whole entry): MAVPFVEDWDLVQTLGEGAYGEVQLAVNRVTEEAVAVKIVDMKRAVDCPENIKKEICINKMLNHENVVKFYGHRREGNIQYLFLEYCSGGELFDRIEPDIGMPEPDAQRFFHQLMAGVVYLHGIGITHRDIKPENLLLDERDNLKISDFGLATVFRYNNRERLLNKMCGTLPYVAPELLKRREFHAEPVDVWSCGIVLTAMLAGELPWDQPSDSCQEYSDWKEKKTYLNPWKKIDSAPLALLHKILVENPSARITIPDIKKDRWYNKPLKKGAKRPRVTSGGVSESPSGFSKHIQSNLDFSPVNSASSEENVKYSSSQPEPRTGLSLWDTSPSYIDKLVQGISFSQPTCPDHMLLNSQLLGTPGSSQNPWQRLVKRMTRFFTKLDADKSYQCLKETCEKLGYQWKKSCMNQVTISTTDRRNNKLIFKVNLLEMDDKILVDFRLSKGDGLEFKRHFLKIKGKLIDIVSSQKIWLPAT

[10] = target: RAC-alpha serine/threonine-protein kinase (Homo sapiens, UniProt P31749); type: functional;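 also: AKT1 affinity measured as one member of a kinome-wide kinase profiling panel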
Chain of RAC-alpha serine/threonine-protein kinase (P31749 whole entry): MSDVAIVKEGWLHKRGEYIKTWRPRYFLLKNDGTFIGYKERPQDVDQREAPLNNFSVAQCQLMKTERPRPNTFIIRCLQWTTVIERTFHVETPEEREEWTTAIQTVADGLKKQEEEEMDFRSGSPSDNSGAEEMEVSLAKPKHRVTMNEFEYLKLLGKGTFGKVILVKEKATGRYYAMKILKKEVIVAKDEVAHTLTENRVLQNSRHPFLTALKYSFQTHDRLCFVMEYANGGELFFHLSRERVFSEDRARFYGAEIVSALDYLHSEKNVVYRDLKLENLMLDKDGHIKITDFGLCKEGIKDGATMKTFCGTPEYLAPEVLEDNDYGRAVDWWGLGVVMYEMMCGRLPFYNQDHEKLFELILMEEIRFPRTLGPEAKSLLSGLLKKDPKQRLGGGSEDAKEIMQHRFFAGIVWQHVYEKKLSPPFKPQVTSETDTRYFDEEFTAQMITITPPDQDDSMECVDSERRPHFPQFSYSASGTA

Compound	IC50 [1]	IC50 [2]	IC50 [3]	AC50 [4]	IC50 [5]	Ki [6]	Ki [7]	Ki [8]	Ki [9]	Ki [10]
Cc1c(NC(=O)C(C)OC(=O)c2ccc([N+](=O)[O-])s2)c(=O)n(-c2ccccc2)n1C (centres undefined)	1.99 µM (active)	49.5 µM (inactive)	7.35 µM (active)	> 20 µM (inactive)	–	–	–	–	–	–
COc1cc(Br)c(C(=O)c2nccc3cc(OC)c(OC)cc23)cc1OC	2.29 µM (active)	3.53 µM (active)	0.377 µM (active)	0.416 µM (active)	2.99 µM (active)	–	–	–	–	–
CC(N)C1CCC(C(=O)Nc2ccnc3[nH]ccc23)CC1 (centres undefined)	–	–	–	–	–	1 µM (active)	> 3.98 µM (inactive)	> 1.58 µM (inactive)	> 7.94 µM (inactive)	1.26 µM (active)
